Laboratory results as given in ChEMBL document CHEMBL1137553, “An expeditious synthesis of tamoxifen, a representative SERM (selective estrogen receptor modulator), via the three-component coupling reaction among aromatic aldehyde, cinnamyltrimethylsilane, and beta-chlorophenetole” (Bioorg Med Chem, 2007).
≈ marks a conversion by molar mass, not a printed value. One block for each compound: values may come before it.

Experiments:
HL-60 [1] = experiment: Antiproliferative activity against human HL60 cells assessed as cell viability at 1 ug/ml after 4 hrs by MTT assay; format: functional; conditions: HL-60, 4 h, read-out: Activity
HL-60 [2] = experiment: Antiproliferative activity against human HL60 cells assessed as cell viability at 10 ug/ml after 4 hrs by MTT assay; format: functional; conditions: HL-60, 4 h, read-out: Activity
HL-60 [3] = experiment: Antiproliferative activity against human HL60 cells assessed as cell viability after 4 hrs by MTT assay; format: functional
HL-60 [4] = experiment: Growth inhibition of human HL60 cells after 4 hrs by MTT assay; format: functional, cell-based; conditions: HL-60, 4 h
HL-60 [5] = experiment: Antiproliferative activity against human HL60 cells assessed as cell viability at 5 ug/ml after 4 hrs by MTT assay; format: functional; conditions: HL-60, 4 h, read-out: Activity
HL-60 [6] = experiment: Antiproliferative activity against human HL60 cells assessed as cell viability at 20 ug/ml after 4 hrs by MTT assay; format: functional; conditions: HL-60, 4 h, read-out: Activity

IC50 (HL-60 [4]): 5.9 µg/mL (≈ 15.9 µM)
Structure (SMILES): CC/C(=C(\c1ccccc1)c1ccc(OCCN(C)C)cc1)c1ccccc1 [TAMOXIFEN]
viability at 1 µg/mL (HL-60 [1]): 96.2% | viability at 10 µg/mL (HL-60 [2]): 15.9% | Activity (HL-60 [3]): 100% | viability at 5 µg/mL (HL-60 [5]): 53.5% | viability at 20 µg/mL (HL-60 [6]): 5.45%

IC50 (HL-60 [4]): 7.7 µg/mL (≈ 14.7 µM)
Structure (SMILES): CC/C(=C(\c1ccc(I)cc1)c1ccc(OCCN2CCCC2)cc1)c1ccccc1 [IDOXIFENE]
viability at 1 µg/mL (HL-60 [1]): 106% | viability at 10 µg/mL (HL-60 [2]): 25.5% | Activity (HL-60 [3]): 100% | viability at 5 µg/mL (HL-60 [5]): 82.7% | viability at 20 µg/mL (HL-60 [6]): 8.72%

IC50 (HL-60 [4]): 6 µg/mL (≈ 13.3 µM)
Structure (SMILES): CC/C(=C(/c1ccc(Br)cc1)c1ccc(OCCN(C)C)cc1)c1ccccc1
viability at 1 µg/mL (HL-60 [1]): 99.9% | viability at 10 µg/mL (HL-60 [2]): 13.2% | Activity (HL-60 [3]): 100% | viability at 5 µg/mL (HL-60 [5]): 59.2% | viability at 20 µg/mL (HL-60 [6]): 7.01%

IC50 (HL-60 [4]): 19 µg/mL (≈ 38.2 µM)
Structure (SMILES): CC/C(=C(/c1ccc(OCCN(C)C)cc1)c1cccc(I)c1)c1ccccc1
viability at 1 µg/mL (HL-60 [1]): 109% | viability at 10 µg/mL (HL-60 [2]): 97.2% | Activity (HL-60 [3]): 100% | viability at 5 µg/mL (HL-60 [5]): 104% | viability at 20 µg/mL (HL-60 [6]): 36%
